Measured values published in patent publication US20240024504A1, “SITE-SELECTIVE LYSINE ACETYLATION OF HUMAN IMMUNOGLOBULIN G AND IgG-RELATED PRODUCTS FOR IMMUNOTHERAPY” (The Chinese University of Hong Kong, priority 2022, published 2024).
Numbered stars: 1 amine (or outer) side, 2 acyl side, 3 side chain; on linkers, the order of the positions; unused ones are H or OH. Bridge positions count the residues as written; N and C are the ends. Square brackets hold non-standard residues; d marks the D form. Peptide text beside a SMILES is read from it. * marks the point of attachment. X1 = O=C(O)c1cc(NC(=S)*)ccc1-c1c2ccc(=O)cc-2oc2cc(O)ccc12; X4 = [N-]=[N+]=NCC(=O)Nc1ccc(N*)cc1; Dap = NC[C@H](N)C(=O)O; X3 = O=C(C[*:2])[*:1]; X2 = Oc1ccc(N*)cc1; βAla = NCCC(=O)O

How the values were obtained:
human IgG Fc = test: Peptide-driven acetylation (labelling) of human IgG Fc, SDS-PAGE in-gel fluorescence / MALDI-TOF MS; format: biochemical; details: for yield of the labeled Fc: MS peak area after Glu-C digestion (F11: in-gel fluorescence, ImageJ)
Procedure: (§1) FIG. 2A-2C Kinetic details of the acetylation reaction and hydrolysis of F1. (FIG. 2A) Reactions at different peptide-to-IgG Fc ratios. Reactions were performed in PBS buffer (pH 7.4) at 37° C. for 1 h. Protein loading in each lane is 2 μg. (FIG. 2B) Reaction kinetics. Reaction condition: 4 μM IgG Fc, 24 μM F1, PBS buffer (pH 7.4), at 37° C. The reactions were quenched with 1% SDS at different time points. After conducting an SPAAC reaction with DBCO-PEG4-TAMRA, the reactions were denatured and resolved by SDS-PAGE. Product conversion was quantified based on band-shift in the SDS-PAGE image. (FIG. 2C) Hydrolysis of peptide ester (24 μM) monitored by HPLC in pH 7.4 PBS buffer at 37° C.
FIG. 27A-27B The study of IgG Fc acetylation reaction with different payloads. (FIG. 27A) A set of reactive peptides with different acyl groups tested for labeling efficiency. (FIG. 27B) The yields of IgG Fc labeled by peptides at 37° C. Reaction condition: 4 μM IgG Fc, 24 μM peptide, in PBS buffer (pH 7.4) for 2 h or in borate buffer (pH 8.5) for 15 h, respectively. […] The yields were quantified by MS analysis with in-solution Glu-C digestion of modified Fc or by in-gel fluorescent image (FIGS. 27A-27B, […]).
(§2) IgG or IgG Fc labelling reactions. Unless otherwise noted, the final concentrations of proteins were 4 μM and peptides were 24 μM. The conjugation reactions were performed in PBS buffer (pH 7.4, 137 mM NaCl, 2.7 mM KCl, 10 mM Na2HPO4, 1.8 mM KH2PO4) at 37° C. for 1 h and stopped by 1% SDS. For copper-free click chemistry, the protein-peptide reaction mixture was first incubated with 100 uM DBCO-TAMRA at room temperature for 2 h and then denatured in the presence of loading dye. After resolved by SDS-PAGE, the gel was first observed in the fluorescence channel, and then stained with Coomassie Brilliant Blue dye.
Characterization of IgG or IgG Fc modification by MALDI-TOF MS. To characterize Fc region, 5 μg protein sample was used. Firstly, Fc was treated in the presence of TCEP (20 mM) at 60° C. for 10 min. Then, the sample was acidified with TFA at a pH of <4. After prewetting, C4 ZipTip was equilibrated with water (0.1% TFA). Binding of Fc was realized by aspirating and dispensing sample 7 to 10 cycles. The tip was next washed 3 times and eluted by 5 μL 70% acetonitrile/water solution with 0.1% TFA. Now the sample was ready for MALDI-TOF MS analysis. For characterization of modified Fc region, the reaction was first quenched by acidification (For acid labile antibodies, the peptide f-F0 could be used to quench the reaction.). After coupling with DBCO-TAMRA, the sample was reduced. Then, the sample was desalted and concentrated by using the same procedure. […] Next the sample was purified by HPLC with C4 column, and peaks were collected and lyophilized. The sample was dissolved in 50% acetonitrile/water solution with 0.1% TFA and subjected to MALDI-TOF MS analysis.

IgG Fc from mice = test: Target selectivity of peptide-driven acetylation towards IgG from different species (mouse); format: biochemical; details: 4 μM protein, 24 μM F1, PBS pH 7.4, 37° C., 1 h
Procedure: (§3) FIG. 10 Target selectivity of peptide-driven acetylation towards IgG from different species. Reaction condition: 4 μM protein, 24 μM F1, PBS buffer (pH 7.4), at 37° C. for 1 h. The reactions were quenched with 1% SDS and DBCO-TAMRA was added at room temperature for 1.5 h for copper-free click chemistry. […] Each lane contains […] of antibodies.
as §2

atezolizumab [1] = molecular target: T1, atezolizumab (Homo sapiens, UniProt P01857, D239E/L241M/N180A); test: Acetylation of atezolizumab by peptide F1, MALDI-TOF MS / SDS-PAGE; format: biochemical; design: purchased SelleckChem A2004; details: for heavy chain modified: 4 μM Atezo, 24 μM F1, PBS pH 7.4, 37° C., MALDI-TOF MS
Procedure: (FIG. 4A) Acetylation reaction monitored by SDS-PAGE and fluorescent scanning. Reaction condition: 4 μM Atezo, 24 μM F1, PBS buffer (pH 7.4), at 37° C. for 1 h. The reactions were quenched with 1% SDS and DBCO-TAMRA was added at room temperature for 1.5 h for SPAAC reaction before SDS-PAGE and in-gel fluorescent imaging. […] (FIG. 4C) In-gel digestion for MALDI-TOF MS analysis to identify the acetylation site. Modified Lys 248 was marked in red. L chain: light chain, H chain: heavy chain, M-H chain: modified heavy chain, Atezo: atezolizumab.
as §2
Characterization of IgG or IgG Fc modification by MALDI-TOF MS. To characterize Fc region, 5 μg protein sample was used. Firstly, Fc was treated in the presence of TCEP (20 mM) at 60° C. for 10 min. Then, the sample was acidified with TFA at a pH of <4. After prewetting, C4 ZipTip was equilibrated with water (0.1% TFA). Binding of Fc was realized by aspirating and dispensing sample 7 to 10 cycles. The tip was next washed 3 times and eluted by 5 μL 70% acetonitrile/water solution with 0.1% TFA. Now the sample was ready for MALDI-TOF MS analysis. For characterization of modified Fc region, the reaction was first quenched by acidification (For acid labile antibodies, the peptide f-F0 could be used to quench the reaction.). After coupling with DBCO-TAMRA, the sample was reduced. Then, the sample was desalted and concentrated by using the same procedure. […]

[2] = Hydrolysis of peptide ester monitored by HPLC; format: physicochemical
Procedure: as §1

[3] = system: IgG Fc in a protein mixture of HeLa cell lysate; details: Fc-spiked HeLa cell lysate, RIPA lysis buffer pH 7.4, 37° C., 1 h, 6-fold excess of peptide
Procedure: Fc protein was spiked to a mixture of proteins from HeLa cell lysate, and the F1 peptide was added to the lysate to initiate acetylation reaction. […] Reactions were performed in pH 7.4 RIPA lysis buffer at 37° C. for 1 h with a 6-fold excess of peptides, followed by copper-free click chemistry with DBCO-TAMRA. Then the reactions were analyzed by denaturing SDS-PAGE and imaged using in-gel fluorescence scanning and Coomassie blue staining.

rabbit IgG = test: Target selectivity of peptide-driven acetylation towards IgG from different species (rabbit); format: biochemical; details: 4 μM protein, 24 μM F1, PBS pH 7.4, 37° C., 1 h
Procedure: as §3, §2

atezolizumab [4] = molecular target: T1, atezolizumab; test: biochemical
Description: Ligand-induced fluorescence change was used to determine the Kd value. (FIG. 13A) Dose response curve. (FIG. 13B) Capillary scans. (FIG. 13C) MST traces.
Ligand-induced fluorescence change was used to determine the Kd value. (FIG. 14A) Dose response curve. (FIG. 14B) Capillary scans. (FIG. 14C) MST traces.
Ligand-induced fluorescence change was used to determine the Kd value. (FIG. 15A) Dose response curve. (FIG. 15B) Capillary scans. (FIG. 15C) MST traces.
Microscale thermophoresis (MST) binding experiments. […] The measurements were performed in phosphate buffered saline supplemented with 0.05% Tween-20 (PBS-T). […] The measurements were performed on a NanoTemper Technologies Monolith NT.115 instrument. The settings of MST power was medium and LED power was Auto-detect.

[5] = 4 μM IgG Fc, 24 μM peptide, 37° C., PBS buffer (pH 7.4) for 2 h
[6] = 4 μM IgG Fc, 24 μM peptide, 37° C., borate buffer (pH 8.5) for 15 h

T1 sequence (P01857 whole entry N180A/D239E/L241M, looked up, other chains not shown): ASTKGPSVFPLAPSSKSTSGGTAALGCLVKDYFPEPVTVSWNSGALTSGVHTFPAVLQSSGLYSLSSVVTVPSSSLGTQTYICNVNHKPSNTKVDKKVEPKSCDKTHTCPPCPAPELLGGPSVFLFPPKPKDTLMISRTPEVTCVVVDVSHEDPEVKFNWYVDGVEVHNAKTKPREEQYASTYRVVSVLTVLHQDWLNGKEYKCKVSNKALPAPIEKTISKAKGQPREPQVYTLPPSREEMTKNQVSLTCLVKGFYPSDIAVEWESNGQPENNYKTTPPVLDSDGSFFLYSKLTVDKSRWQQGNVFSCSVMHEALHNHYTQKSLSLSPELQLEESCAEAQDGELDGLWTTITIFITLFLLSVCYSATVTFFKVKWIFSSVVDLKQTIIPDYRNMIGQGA

## CC(=O)N[C@@H](CC(=O)O)C(=O)N[C@H]1CNC(=O)CSC[C@@H](C(=O)N[C@H](C(N)=O)[C@@H](C)O)NC(=O)[C@H](Cc2c[nH]c3ccccc23)NC(=O)[C@H](C(C)C)NC(=O)[C@H](CC(C)C)NC(=O)[C@H](CCC(=O)Nc2ccc(OC(C)=O)cc2)NC(=O)CNC(=O)[C@H](CC(C)C)NC(=O)[C@H](Cc2c[nH]cn2)NC(=O)[C@H](Cc2c[nH]c3ccccc23)NC(=O)[C@H](C)NC1=O [F7]
Human IgG Fc; [5]
  yield of the labeled Fc: about 41%
Human IgG Fc; [6]
  yield of the labeled Fc: 90%

## CC(=O)N[C@@H](CC(=O)O)C(=O)N[C@H]1CNC(=O)CSC[C@@H](C(=O)N[C@H](C(N)=O)[C@@H](C)O)NC(=O)[C@H](Cc2c[nH]c3ccccc23)NC(=O)[C@H](C(C)C)NC(=O)[C@H](CC(C)C)NC(=O)C(CCC(=O)Nc2cccc(OC(=O)CN=[N+]=[N-])c2)NC(=O)CNC(=O)[C@H](CC(C)C)NC(=O)[C@H](Cc2c[nH]cn2)NC(=O)[C@H](Cc2c[nH]c3ccccc23)NC(=O)[C@H](C)NC1=O (some centres unmarked) [F6]
Human IgG Fc; 3-aminophenol linker instead of 4-aminophenol
  acetylation yield compared with F1: markedly decreased the acetylation yield

## C#CCCC(=O)Oc1ccc(NC(=O)CC[C@@H]2NC(=O)CNC(=O)[C@H](CC(C)C)NC(=O)[C@H](Cc3c[nH]cn3)NC(=O)[C@H](Cc3c[nH]c4ccccc34)NC(=O)[C@H](C)NC(=O)[C@@H](NC(=O)[C@H](CC(=O)O)NC(C)=O)CNC(=O)CSC[C@@H](C(=O)N[C@H](C(N)=O)[C@@H](C)O)NC(=O)[C@H](Cc3c[nH]c4ccccc34)NC(=O)[C@H](C(C)C)NC(=O)[C@H](CC(C)C)NC2=O)cc1 [F8]
Human IgG Fc; [5]
  yield of the labeled Fc: about 17%
Human IgG Fc; [6]
  yield of the labeled Fc: 84%

## CC(=O)N[C@@H](CC(=O)O)C(=O)N[C@H]1CNC(=O)CSC[C@@H](C(=O)N[C@H](C(N)=O)[C@@H](C)O)NC(=O)[C@H](Cc2c[nH]c3ccccc23)NC(=O)[C@H](C(C)C)NC(=O)[C@H](CC(C)C)NC(=O)C(CCC(=O)Nc2ccc(OC(=O)CCCC[C@@H]3SC[C@@H]4NC(=O)N[C@@H]43)cc2)NC(=O)CNC(=O)[C@H](CC(C)C)NC(=O)[C@H](Cc2c[nH]cn2)NC(=O)[C@H](Cc2c[nH]c3ccccc23)NC(=O)[C@H](C)NC1=O (some centres unmarked) [F9]
Human IgG Fc; [5]
  yield of the labeled Fc: about 18%
Human IgG Fc; [6]
  yield of the labeled Fc: 73%

## CC(=O)N[C@@H](CC(=O)O)C(=O)N[C@H]1CNC(=O)CSC[C@@H](C(=O)N[C@H](C(N)=O)[C@@H](C)O)NC(=O)[C@H](Cc2c[nH]c3ccccc23)NC(=O)[C@H](C(C)C)NC(=O)[C@H](CC(C)C)NC(=O)[C@H](CCC(=O)Nc2ccc(OC(=O)CN=[N+]=[N-])cc2)NC(=O)CNC(=O)[C@H](CC(C)C)NC(=O)[C@H](Cc2c[nH]cn2)NC(=O)[C@H](Cc2c[nH]c3ccccc23)NC(=O)[C@H](C)NC1=O [F1]
IgG Fc from mice
  reactivity with IgG Fc by species: not the IgG Fc from mice
Atezolizumab [1]; 37° C. for 1 h
  chain selectivity of acetylation: acetylated the heavy chain only
Atezolizumab [1]; in 15 minutes
  heavy chain modified: ~50%
Atezolizumab [1]; in 1 h
  heavy chain modified: ~80%
[2]; basic condition (pH 8.5)
  stability of peptide: extremely unstable at basic condition
[2]; in 1 h at pH 7.4, PBS, 37° C., 24 μM, absence of IgGs
  peptide ester lost by hydrolysis: about 70%
[3]
  selectivity of acetylation in a complex protein mixture: selectively acetylate IgG Fc in a protein mixture of HeLa cell lysate without an appreciable level of background reactions
Human IgG Fc; 4 μM IgG Fc, 24 μM F1, PBS buffer pH 7.4, 37° C.
  time to 50% completion of the acetylation reaction: less than 30 min
Human IgG Fc; IgG Fc 2 μM to 20 μM, F1:IgG Fc ratio 6:1, PBS pH 7.4, 37° C.
  acetylation reaction conversion within 1 h: > 50%
Human IgG Fc; human, 4 μM protein, 24 μM F1, PBS pH 7.4, 37° C., 1 h
  reactivity with IgG Fc by species: only reacted with human and rabbit IgG Fcs
Rabbit IgG
  reactivity with IgG Fc by species: only reacted with human and rabbit IgG Fcs

## CC(=O)N[C@@H](CC(=O)O)C(=O)N[C@H]1CNC(=O)CSC[C@@H](C(=O)N[C@H](C(N)=O)[C@@H](C)O)NC(=O)[C@H](Cc2c[nH]c3ccccc23)NC(=O)[C@H](C(C)C)NC(=O)[C@H](CC(C)C)NC(=O)[C@H](CCC(=O)Nc2ccc(OC(=O)c3ccc(C(=O)c4ccccc4)cc3)cc2)NC(=O)CNC(=O)[C@H](CC(C)C)NC(=O)[C@H](Cc2c[nH]cn2)NC(=O)[C@H](Cc2c[nH]c3ccccc23)NC(=O)[C@H](C)NC1=O [F10]
Human IgG Fc; [5]
  yield of the labeled Fc: about 5%
Human IgG Fc; 4 μM IgG Fc, 24 μM peptide, 37° C., PBS pH 7.4 2 h or borate pH 8.5 15 h
  mass shift of Fc after reaction (MALDI-TOF MS): No obvious mass shift was observed
Human IgG Fc; [6]
  yield of the labeled Fc: 26%

## CC(C)C[C@@H]1NC(=O)[C@H](Cc2c[nH]cn2)NC(=O)[C@H](Cc2c[nH]c3ccccc23)NC(=O)[C@H](C)NC(=O)[C@@H](NC(=O)[C@H](CC(=O)O)NC(=O)CCNC(=O)CNC(=S)Nc2ccc(-c3c4ccc(=O)cc-4oc4cc(O)ccc34)c(C(=O)O)c2)CNC(=O)CSC[C@@H](C(=O)N[C@H](C(N)=O)[C@@H](C)O)NC(=O)[C@H](Cc2c[nH]c3ccccc23)NC(=O)[C@H](C(C)C)NC(=O)[C@H](CC(C)C)NC(=O)[C@H](CCC(=O)Nc2ccc(NC(=O)CN=[N+]=[N-])cc2)NC(=O)CNC1=O [f-F5] (X1-G[βAla]D[Dap]AWHLGE(X4)LVWCT-NH2; linker 4-14 via X3)
Atezolizumab [4]
  Kd: 2000 nM

## CC(C)C[C@@H]1NC(=O)[C@H](Cc2c[nH]cn2)NC(=O)[C@H](Cc2c[nH]c3ccccc23)NC(=O)[C@H](C)NC(=O)[C@@H](NC(=O)[C@H](CC(=O)O)NC(=O)CCNC(=O)CNC(=S)Nc2ccc(-c3c4ccc(=O)cc-4oc4cc(O)ccc34)c(C(=O)O)c2)CNC(=O)CSC[C@@H](C(=O)N[C@H](C(N)=O)[C@@H](C)O)NC(=O)[C@H](Cc2c[nH]c3ccccc23)NC(=O)[C@H](C(C)C)NC(=O)[C@H](CC(C)C)NC(=O)[C@H](CCC(=O)Nc2ccc(O)cc2)NC(=O)CNC1=O [f-F4] (X1-G[βAla]D[Dap]AWHLGE(X2)LVWCT-NH2; linker 4-14 via X3)
Atezolizumab [4]
  Kd: 1500 nM
